Experimental data as given in ChEMBL document CHEMBL3046418, “Synthesis and Herbicidal Activity of Sulfonylurea Compounds with Imidazo [1, 2-a] pyridine Moiety” (2001).

Key:
Format in all cases: functional
Stellaria media [1] = experiment: Herbicidal activity against Stellaria media after 3 weeks by post-emergence greenhouse test; set-up: concentration or dose not given beside the values
Matricaria chamomilla [2] = experiment: Herbicidal activity against Matricaria chamomilla after 3 weeks by post-emergence greenhouse test; set-up: concentration or dose not given beside the values
Mutarda arvensis [3] = experiment: Herbicidal activity against Sinapis arvensis after 3 weeks by post-emergence greenhouse test; set-up: concentration or dose not given beside the values
Mutarda arvensis [4] = experiment: Herbicidal activity against Sinapis arvensis after 4 weeks by pre-emergence greenhouse test; set-up: concentration or dose not given beside the values
Bromus tectorum [5] = experiment: Herbicidal activity against Bromus tectorum after 4 weeks by pre-emergence greenhouse test; set-up: concentration or dose not given beside the values
Triticum aestivum [6] = experiment: Phytotoxic activity against Triticum aestivum (wheat) after 4 weeks by pre-emergence greenhouse test
Alopecurus myosuroides [7] = experiment: Herbicidal activity against Alopecurus myosuroides after 4 weeks by pre-emergence greenhouse test; set-up: concentration or dose not given beside the values
Chenopodium album [8] = experiment: Herbicidal activity against Chenopodium album after 4 weeks by pre-emergence greenhouse test; set-up: concentration or dose not given beside the values
Stellaria media [9] = experiment: Herbicidal activity against Stellaria media after 4 weeks by pre-emergence greenhouse test; set-up: concentration or dose not given beside the values
Avena fatua [10] = experiment: Herbicidal activity against Avena fatua after 4 weeks by pre-emergence greenhouse test; set-up: concentration or dose not given beside the values
Matricaria chamomilla [11] = experiment: Herbicidal activity against Matricaria chamomilla after 4 weeks by pre-emergence greenhouse test; set-up: concentration or dose not given beside the values
Chenopodium album [12] = experiment: Herbicidal activity against Chenopodium album after 3 weeks by post-emergence greenhouse test; set-up: concentration or dose not given beside the values
Triticum aestivum [13] = experiment: Phytotoxic activity against Triticum aestivum (wheat) after 3 weeks by post-emergence greenhouse test; set-up: concentration or dose not given beside the values
Avena fatua [14] = experiment: Herbicidal activity against Avena fatua after 3 weeks by post-emergence greenhouse test; set-up: concentration or dose not given beside the values
Bromus tectorum [15] = experiment: Herbicidal activity against Bromus tectorum after 3 weeks by post-emergence greenhouse test; set-up: concentration or dose not given beside the values
Alopecurus myosuroides [16] = experiment: Herbicidal activity against Alopecurus myosuroides after 3 weeks by post-emergence greenhouse test; set-up: concentration or dose not given beside the values

SMILES	Activity (Stellaria media [1]) [%]	Activity (Matricaria chamomilla [2]) [%]	Activity (Mutarda arvensis [3]) [%]	Activity (Mutarda arvensis [4]) [%]	Activity (Bromus tectorum [5]) [%]	Phytotoxicity (Triticum aestivum [6]) [%]	Activity (Alopecurus myosuroides [7]) [%]	Activity (Chenopodium album [8]) [%]	Activity (Stellaria media [9]) [%]	Activity (Avena fatua [10]) [%]	Activity (Matricaria chamomilla [11]) [%]	Activity (Chenopodium album [12]) [%]	Activity (Triticum aestivum [13]) [%]	Activity (Avena fatua [14]) [%]	Activity (Bromus tectorum [15]) [%]	Activity (Alopecurus myosuroides [16]) [%]
COc1cc(OC)nc(NC(=O)NS(=O)(=O)c2c(SC(C)C)nc3ccccn23)n1	1	51	51	1	0	0	0	1	0	0	88	1	0	0	1	1
CCCSc1nc2ccccn2c1S(=O)(=O)NC(=O)Nc1nc(OC)cc(OC)n1	1	0	51	1	0	0	1	0	0	0	88	0	0	0	1	1
CCCS(=O)(=O)c1nc2ccccn2c1S(=O)(=O)NC(=O)Nc1nc(OC)cc(OC)n1	76	51	76	51	1	0	76	0	76	0	88	0	0	1	51	76
CC[S+]([O-])c1nc2ccccn2c1S(=O)(=O)NC(=O)Nc1nc(OC)cc(OC)n1 (stereo unspecified)	1	76	51	1	0	0	1	1	1	0	88	1	0	0	51	1
CCS(=O)(=O)c1nc2ccccn2c1S(=O)(=O)NC(=O)Nc1nc(Cl)cc(OC)n1	1	1	100	76	1	0	1	0	1	0	51	1	0	1	51	51
COc1cc(OC)nc(NC(=O)NS(=O)(=O)c2c(S(=O)(=O)C(C)C)nc3ccccn23)n1	76	51	51	88	51	0	88	76	51	1	88	1	0	1	51	88
COc1cc(OC)nc(NC(=O)NS(=O)(=O)c2c([S+](C)[O-])nc3ccccn23)n1 (stereo unspecified)	0	76	76	51	0	0	0	0	0	0	51	0	0	0	1	0
COc1cc(OC)nc(NC(=O)NS(=O)(=O)c2c([S+]([O-])C(C)C)nc3ccccn23)n1 (stereo unspecified)	1	1	1	1	0	0	0	0	0	0	1	1	0	0	1	1
COc1cc(OC)nc(NC(=O)NS(=O)(=O)c2c(Sc3ccccc3)nc3ccccn23)n1	1	1	51	1	0	0	0	0	0	0	51	0	1	0	0	0
CCS(=O)(=O)c1nc2ccccn2c1S(=O)(=O)NC(=O)Nc1nc(C)cc(C)n1	1	1	76	51	1	0	0	1	0	0	1	51	1	51	51	51
CCSc1nc2ccccn2c1S(=O)(=O)NC(=O)Nc1nc(OC)cc(OC)n1	1	51	76	51	0	0	51	1	0	0	88	1	0	1	1	51
COc1cc(OC)nc(NC(=O)NS(=O)(=O)c2c(S(C)(=O)=O)nc3ccccn23)n1	76	88	88	100	76	0	76	1	51	1	88	1	1	1	76	76
COc1cc(OC)nc(NC(=O)NS(=O)(=O)c2c(S(=O)(=O)c3ccccc3)nc3ccccn23)n1	1	1	51	1	0	0	0	0	0	0	1	0	0	0	0	0
COc1cc(OC)nc(NC(=O)NS(=O)(=O)c2c(SC)nc3ccccn23)n1	1	76	88	1	0	0	1	51	51	0	88	0	0	0	1	1
COc1cc(OC)nc(NC(=O)NS(=O)(=O)c2c([S+]([O-])c3ccccc3)nc3ccccn23)n1 (stereo unspecified)	1	1	51	1	0	0	0	0	0	0	1	0	0	0	1	1
CCC[S+]([O-])c1nc2ccccn2c1S(=O)(=O)NC(=O)Nc1nc(OC)cc(OC)n1 (stereo unspecified)	51	1	51	1	0	0	0	0	0	0	76	1	0	0	1	1
